The values below come from patent US9365556B2, “3,5-diaminopyrazole kinase inhibitors” (Axikin Pharmaceuticals, Inc., priority 2012, dated 2016).

SMILES strings stand for the structures.

The target of series [1] is T1, kinase domain protein of RC kinase (Homo sapiens, UniProt Q56UN5).
T1 sequence (Q56UN5 1061-1324 limits assumed): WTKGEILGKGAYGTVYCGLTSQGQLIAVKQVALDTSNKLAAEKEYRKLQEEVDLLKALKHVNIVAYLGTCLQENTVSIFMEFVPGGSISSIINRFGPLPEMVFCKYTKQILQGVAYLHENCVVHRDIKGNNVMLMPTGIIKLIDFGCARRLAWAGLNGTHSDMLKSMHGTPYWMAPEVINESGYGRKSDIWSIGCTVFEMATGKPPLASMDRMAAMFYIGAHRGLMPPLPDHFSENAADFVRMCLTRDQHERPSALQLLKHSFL
In words: Enzymatic assay for kinase inhibitory activity (Crebtide substrate, LANCE read-out). The note with it: compound at 1 μM. In kind it is biochemical. In short, it runs like this:
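Compound tested at 1 μM final in HEPES/MgCl2/DTT buffer with 50 nM Crebtide and kinase domain at 1 μM ATP; full-length kinase at 3 μM ATP after 45 min preincubation. Reaction 45 min at room temperature, stopped with EDTA, read by LANCE TR-FRET (665/615 nm). Activity binned as % inhibition at 1 μM.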

`COc1cc(/C=N/c2[nH]nc(Nc3cccc(Cl)c3)c2C#N)ccc1OCc1cnc(Cl)s1` [Compound A60]: the melting point (usually the temperature of the solid-liquid transition) lay in the range of 210 to 220 °C. For the same molecule, the inhibition (commonly how much of the control response was suppressed) at 1 µM in series [1] lay in the range of 5 to 20%.

`N#Cc1c(Nc2cccc(Cl)c2)n[nH]c1/N=C/c1ccc(Oc2ccc(C(F)(F)F)cn2)cc1` [Compound A61] came in with a melting point of 264 to 268 °C. Also, in series [1], the inhibition at 1 µM was in the range of 5 to 20%.

In the case of `Cn1nc(CSc2ccccc2)c(/C=N/c2[nH]nc(Nc3cccc(Cl)c3)c2C#N)c1Cl` [Compound A62], the melting point lay in the range of 194 to 202 °C. In addition, the inhibition at 1 µM in series [1] was in the range of 5 to 20%.

As to `N#Cc1c(Nc2cccc(Cl)c2)n[nH]c1/N=C/C1CCCN1C(=O)OCc1ccccc1` (stereo not shown) [Compound A63], the melting point was 65 to 72 °C. Besides, the inhibition at 1 µM in series [1] was 5 to 20%.

As to `N#Cc1c(Nc2cccc(Cl)c2)n[nH]c1/N=C/c1cccn1S(=O)(=O)c1ccccc1` [Compound A64], the melting point is 217 to 225 °C. Moreover, the inhibition at 1 µM in series [1] lay within 20 to 50%.

On to `N#Cc1c(Nc2cccc(Cl)c2)n[nH]c1/N=C/c1ccc(S(F)(F)(F)(F)F)cc1` [Compound A65, 3-((3-chlorophenyl)amino)-5-((4-(pentafluorolthio)benzylidene)amino)-1H-pyrazole-4-carbonitrile], for which the melting point was 200 to 216 °C. For the same molecule, the inhibition at 1 µM in series [1] was in the range of 5 to 20%.

For `N#Cc1c(Nc2cccc(Cl)c2)n[nH]c1/N=C/c1ccc(-n2cnc3ccccc32)cc1` [Compound A67], the melting point was 308 to 310 °C. Also, in series [1], the inhibition at 1 µM lay within 20 to 50%.

For `N#Cc1c(Nc2cccc(Cl)c2)n[nH]c1/N=C/c1c[nH]c2c(F)c(F)c(F)c(F)c12` [Compound A68], the melting point is 343 to 347 °C. Also, in series [1], the inhibition at 1 µM is 5 to 20%.

Consider `COc1ccc(C(F)(F)F)cc1/C=N/c1[nH]nc(Nc2cccc(Cl)c2)c1C#N` [Compound A75], for which the melting point lay within 189 to 197 °C. Further, the inhibition at 1 µM in series [1] was not above 5%.

`N#Cc1c(Nc2cccc(Cl)c2)n[nH]c1/N=C/c1cccc(Oc2ncccn2)c1` [Compound A76] showed a melting point of 234 to 239 °C. Besides, the inhibition at 1 µM in series [1] fell in the range of 5 to 20%.

The molecule `N#Cc1c(Nc2cccc(Cl)c2)n[nH]c1/N=C/c1ccc(N2CCOCC2)nc1` [Compound A79] returned a melting point of 273 to 279 °C. Also, the inhibition at 1 µM in series [1] was not above 5%.

`CS(=O)(=O)N1CCC(/C=N/c2[nH]nc(Nc3cccc(Cl)c3)c2C#N)CC1` [Compound A80] yielded a melting point of 102 to 105 °C. In addition, in series [1], the inhibition at 1 µM was not above 5%.

The molecule `N#Cc1c(Nc2cccc(Cl)c2)n[nH]c1/N=C/c1ccccc1-c1cccs1` [Compound A81] registered a melting point of 75 to 80 °C. Moreover, the inhibition at 1 µM in series [1] fell in the range of 5 to 20%.

Turning to `N#Cc1c(Nc2cccc(Cl)c2)n[nH]c1/N=C/c1ccc(OC(F)F)c(O)c1` [Compound A82], the melting point lay within 164 to 176 °C. Moreover, in series [1], the inhibition at 1 µM is not above 5%.

Consider `N#Cc1c(Nc2cccc(Cl)c2)n[nH]c1/N=C/c1ccc(-c2ccccn2)cc1` [Compound A84], for which the melting point fell in the range of 326 to 329 °C. Further, the inhibition at 1 µM in series [1] is not above 5%.

Regarding `N#Cc1c(Nc2cccc(Cl)c2)n[nH]c1/N=C/c1cncc(N2CCCC2)c1` [Compound A86], the melting point is 305 to 309 °C. Further, the inhibition at 1 µM in series [1] is not above 5%.

In turn, `N#Cc1c(Nc2cccc(Cl)c2)n[nH]c1/N=C/c1ccc(-n2cncn2)cc1` [Compound A87] yielded a melting point of 284 to 288 °C. The inhibition at 1 µM in series [1] is not above 5%.

In turn, `N#Cc1c(Nc2cccc(Cl)c2)n[nH]c1/N=C/c1ccc(OCCO)cc1` [Compound A88] registered a melting point of 229 to 232 °C. For the same molecule, in series [1], the inhibition at 1 µM was in the range of 5 to 20%.

Molecule `N#Cc1c(Nc2cccc(Cl)c2)n[nH]c1/N=C/c1ccc2snnc2c1` [Compound A90] had a melting point of 276 to 281 °C. Further, the inhibition at 1 µM in series [1] was not above 5%.

As for `N#Cc1c(Nc2cccc(Cl)c2)n[nH]c1/N=C/c1ccc(Cl)cc1O` [Compound A91], the melting point was in the range of 283 to 284 °C. Besides, the inhibition at 1 µM in series [1] is not above 5%.
